Measured values: ChEMBL document CHEMBL1201862, “PubChem BioAssay data set” (2004)
“And” between values parts separate entries of the source, which are not always exact repeats. Equal values may be shown once. The source made the active and inactive calls.

What was measured:
[1] = NIH-3T3 fibroblast cytotoxicity, dose response, cytotoxicity control, cell-based, fluorescence, Alamar Blue, secondary assay (AID 2327); format: functional;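 further: NIH-3T3 mouse fibroblasts cultured with fluconazole at 8 µg/mL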
[2] = C. albicans growth with fluconazole, confirmation, fluorescence, retest (AID 2467); format: functional, cell-based
[3] = target: T1, Heat shock factor protein 1 (Mus musculus, UniProt P38532); experiment: HSF1 potentiators in luciferase reporter cells, confirmation, cell-based, NIH3T3, luminescence, dose retest (AID 435004); format: functional;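 further: stress induced by proteasome inhibitor MG132 added 30 min after compound; luciferase reporter driven by HSF1 response element in NIH3T3 cells; actives raise luminescence as potentiators of the MG132 stress response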
T1 sequence (P38532 whole entry): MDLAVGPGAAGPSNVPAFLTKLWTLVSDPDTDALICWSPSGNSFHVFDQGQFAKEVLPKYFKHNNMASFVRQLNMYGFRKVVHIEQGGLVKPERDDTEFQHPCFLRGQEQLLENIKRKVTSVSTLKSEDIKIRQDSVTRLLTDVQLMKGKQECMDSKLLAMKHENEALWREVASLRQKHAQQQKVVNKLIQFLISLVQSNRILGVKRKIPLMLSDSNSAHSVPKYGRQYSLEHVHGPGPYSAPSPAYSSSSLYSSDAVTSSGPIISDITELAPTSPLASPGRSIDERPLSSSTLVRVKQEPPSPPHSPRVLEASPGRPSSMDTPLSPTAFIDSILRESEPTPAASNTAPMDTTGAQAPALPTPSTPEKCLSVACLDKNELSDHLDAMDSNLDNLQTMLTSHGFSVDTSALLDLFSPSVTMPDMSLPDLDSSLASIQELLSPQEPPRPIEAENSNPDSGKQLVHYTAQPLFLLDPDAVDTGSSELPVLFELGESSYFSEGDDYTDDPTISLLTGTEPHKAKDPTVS

[4] = target: T2, Polyadenylate-binding protein 1 (Homo sapiens, UniProt P11940); experiment: PABP1 MLLE–PAM2 interaction inhibitors, dose response, miRNA deadenylation inhibitor project, biochemical, fluorescence polarization, Cy5-PAM2 peptide, secondary (AID 602260); format: functional; conditions: read-out: IC50_Mean
[5] = target: T2, Polyadenylate-binding protein 1; experiment: PABP1 MLLE–PAM2 binding inhibitor potency, dose response, biochemical, fluorescence polarization, FITC-PAM2 peptide (AID 602259); format: functional; conditions: read-out: IC50_Mean
Escherichia coli = experiment: microbe, parasite or virus in culture
BJ [6] = experiment: cytotoxicity toward BJ-TERT fibroblasts, dose response, cell-based, RAS-independent, luminescence (AID 1933); format: functional; conditions: Homo sapiens
BJ [7] = experiment: cells; format: functional, cell-based; conditions: Homo sapiens
BJ [8] = experiment: cytotoxicity toward BJ-TERT-LT-ST fibroblasts, dose response, cell-based, RAS-independent, luminescence (AID 1935); format: functional; conditions: Homo sapiens;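 further: BJ fibroblasts immortalized with TERT plus LT and ST oncogenes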
[9] = cytotoxicity toward DRD oncogenic fibroblasts, dose response, cell-based, non-viral oncogenic, luminescence (AID 1934); format: functional; conditions: Homo sapiens
[10] = target: T3, Microphthalmia-associated transcription factor (Homo sapiens, UniProt O75030); experiment: TRPM1 promoter luciferase signal decrease, dose response, MITF inhibitor project, cell-based, SK-MEL-5, cherry-picked, set 3 (AID 493073); format: functional
T3 sequence (O75030 whole entry): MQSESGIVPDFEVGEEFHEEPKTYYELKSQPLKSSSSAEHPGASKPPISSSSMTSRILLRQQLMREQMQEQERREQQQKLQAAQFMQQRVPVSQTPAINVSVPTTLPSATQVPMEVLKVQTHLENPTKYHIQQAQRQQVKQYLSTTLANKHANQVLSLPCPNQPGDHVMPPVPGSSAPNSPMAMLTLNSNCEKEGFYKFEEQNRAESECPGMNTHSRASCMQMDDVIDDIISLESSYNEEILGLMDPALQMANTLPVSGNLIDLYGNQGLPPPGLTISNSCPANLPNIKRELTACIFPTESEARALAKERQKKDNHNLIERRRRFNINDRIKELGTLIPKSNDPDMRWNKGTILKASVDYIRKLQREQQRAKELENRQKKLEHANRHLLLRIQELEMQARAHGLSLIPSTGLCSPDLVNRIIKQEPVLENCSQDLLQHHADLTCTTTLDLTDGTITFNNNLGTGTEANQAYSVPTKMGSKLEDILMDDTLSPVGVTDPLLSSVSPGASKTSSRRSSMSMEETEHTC

Vero [11] = experiment: cells; format: functional; conditions: Chlorocebus sabaeus
Hexokinase = target: T4, Hexokinase (Trypanosoma brucei, UniProt Q38C41); experiment: Confirmation assay for inhibitors of Trypanosoma brucei hexokinase 1-Analogue-first series. [Related pubchem assays (depositor defined):AID1430, AID1632, AID2516, AID2560, AID2579, AID2600, AID449725, AID492951]; format: functional
T4 sequence (Q38C41 whole entry): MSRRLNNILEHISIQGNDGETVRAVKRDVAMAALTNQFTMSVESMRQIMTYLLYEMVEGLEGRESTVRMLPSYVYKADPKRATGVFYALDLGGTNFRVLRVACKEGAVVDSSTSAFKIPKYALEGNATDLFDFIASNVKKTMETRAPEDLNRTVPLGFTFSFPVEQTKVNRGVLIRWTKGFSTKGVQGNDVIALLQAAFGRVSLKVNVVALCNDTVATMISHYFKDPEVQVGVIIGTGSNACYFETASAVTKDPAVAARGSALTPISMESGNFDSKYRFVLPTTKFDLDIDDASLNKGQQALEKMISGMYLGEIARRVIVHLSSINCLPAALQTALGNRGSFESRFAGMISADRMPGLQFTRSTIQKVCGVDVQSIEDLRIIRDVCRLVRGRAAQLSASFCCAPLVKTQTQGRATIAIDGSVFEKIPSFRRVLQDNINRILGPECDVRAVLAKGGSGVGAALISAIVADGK

Vero [12] = experiment: cells; format: functional, cell-based; conditions: Chlorocebus sabaeus
[13] = HEp-2 cell cytotoxicity, dose response, cytotoxicity control for RSV inhibitor project, HTS (AID 2410); format: functional; conditions: human respiratory syncytial virus
[14] = A Cell Based Secondary Assay To Explore Cytotoxicity of Compounds that Sensitize Mycobacterium Tuberculosis to Beta-Lactam Antibiotics.; format: functional
[15] = target: Eukaryotic translation initiation factor 4E (Mus musculus, UniProt P63073); experiment: eIF4E–eIF4G protein interaction inhibitors, dose response, biochemical, TR-FRET (AID 855); format: functional;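 further: potency for disrupting eIF4E binding to eIF4GI seen as loss of FRET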
[16] = microbe, parasite or virus in culture; format: functional; conditions: Mycobacterium tuberculosis
[17] = Luminescence Cell-Based Dose Retest to Confirm Inhibitors of Cancer Stem Cells. [Related pubchem assays (depositor defined):AID2717, AID2721]; format: functional; conditions: Homo sapiens
cells [18] = format: functional, cell-based
cells [19] = format: functional, cell-based; remark: listed apart in the source
[20] = target: Glucose-6-phosphate 1-dehydrogenase (Homo sapiens, UniProt P11413); experiment: human G6PD enzyme inhibitors, dose response, selectivity assay for P. falciparum G6PD inhibitor project, biochemical, fluorescence (AID 504792); format: functional
[21] = THP-1 cell cytotoxicity, dose response, cytotoxicity control for non-replicating M. tuberculosis project (AID 489025); format: functional
[22] = target: Heat shock protein HSP 90-alpha (Homo sapiens, UniProt P07900); format: functional, organism-based
[23] = Shn3 3'UTR reporter inhibitors, dose response, cell-based, Clone20 osteoblasts, firefly luciferase, cherry-picked (AID 624132); format: functional;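 further: firefly luciferase luminescence from reporter carrying the Shn3 3'UTR in osteoblasts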
[24] = HepG2 cell cytotoxicity, dose response, cytotoxicity control for Shn3 inhibitor project, CellTiter-Glo, cherry-picked (AID 624134); format: functional, cell-based
[25] = control 3'UTR Renilla luciferase suppression, dose response, counter-screen for Shn3 inhibitor project, cell-based, Clone20-Shn3RL, cherry-picked (AID 624133); format: functional

T2 sequence (P11940 whole entry): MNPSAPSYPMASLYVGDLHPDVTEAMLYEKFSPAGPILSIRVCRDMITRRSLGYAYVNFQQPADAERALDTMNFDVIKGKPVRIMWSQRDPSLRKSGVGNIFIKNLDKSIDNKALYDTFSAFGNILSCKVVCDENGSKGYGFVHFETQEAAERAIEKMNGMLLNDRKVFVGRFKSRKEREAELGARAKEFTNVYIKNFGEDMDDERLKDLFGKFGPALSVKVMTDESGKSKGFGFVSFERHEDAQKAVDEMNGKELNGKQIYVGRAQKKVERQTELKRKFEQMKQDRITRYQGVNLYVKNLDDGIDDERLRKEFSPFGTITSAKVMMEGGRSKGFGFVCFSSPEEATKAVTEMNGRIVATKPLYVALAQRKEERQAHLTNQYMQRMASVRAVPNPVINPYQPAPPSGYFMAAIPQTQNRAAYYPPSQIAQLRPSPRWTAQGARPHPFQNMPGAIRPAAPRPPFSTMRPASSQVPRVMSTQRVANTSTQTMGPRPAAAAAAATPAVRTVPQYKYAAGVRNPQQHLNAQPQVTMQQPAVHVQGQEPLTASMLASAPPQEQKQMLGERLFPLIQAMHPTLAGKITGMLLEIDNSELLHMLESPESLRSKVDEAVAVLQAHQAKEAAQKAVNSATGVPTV
Eukaryotic translation initiation factor 4E, sequence (P63073 whole entry): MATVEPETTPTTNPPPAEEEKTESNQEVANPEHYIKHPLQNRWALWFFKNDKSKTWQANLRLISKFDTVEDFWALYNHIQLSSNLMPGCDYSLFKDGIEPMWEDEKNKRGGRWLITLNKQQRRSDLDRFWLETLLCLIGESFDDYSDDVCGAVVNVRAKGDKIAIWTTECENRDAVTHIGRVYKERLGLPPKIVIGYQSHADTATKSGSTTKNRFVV
Glucose-6-phosphate 1-dehydrogenase, sequence (P11413 whole entry): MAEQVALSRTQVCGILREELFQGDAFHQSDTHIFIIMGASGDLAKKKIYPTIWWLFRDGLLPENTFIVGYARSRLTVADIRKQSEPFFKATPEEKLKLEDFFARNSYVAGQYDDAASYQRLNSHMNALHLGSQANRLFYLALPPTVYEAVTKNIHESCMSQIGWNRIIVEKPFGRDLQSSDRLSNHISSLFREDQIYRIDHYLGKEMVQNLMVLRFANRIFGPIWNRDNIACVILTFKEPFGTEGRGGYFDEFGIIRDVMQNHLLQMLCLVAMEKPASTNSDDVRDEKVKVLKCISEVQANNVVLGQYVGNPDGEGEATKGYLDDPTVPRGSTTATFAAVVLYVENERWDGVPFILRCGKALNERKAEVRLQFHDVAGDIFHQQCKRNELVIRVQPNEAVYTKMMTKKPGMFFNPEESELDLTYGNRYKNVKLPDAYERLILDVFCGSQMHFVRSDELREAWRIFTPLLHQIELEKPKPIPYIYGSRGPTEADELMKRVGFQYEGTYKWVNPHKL

COc1ccc(-n2nc3c(N4CCC(C(=O)N5CCC(C)CC5)CC4)nnc(C)c3c2C)cc1
EC50 [1]: > 160 µM (inactive) | EC50 [2]: > 38 µM (not active) | EC50 [3]: > 260 µM (inactive)

CCCCc1c(O)nc(SCC(=O)c2ccccc2)nc1O
IC50 [4]: > 66 µM (inactive) | IC50 [5]: > 66 µM (inactive) | AC50 (Escherichia coli): 30.3 µM (active)

CCCN(CC(=O)Nc1ccccc1C)C(=O)CCl
EC50 (BJ [6]): 4 µM (active) | EC50 (BJ [7]): 14.9 µM (inconclusive) | EC50 (BJ [8]): > 150 µM (inconclusive) | EC50 [9]: 8.23 µM (active) | AC50 [10]: 4.04 µM (active) | CC50 (Vero [11]): 9.42 µM (active)

CC1(c2ccc(C(=O)Nc3cc(Cl)ccc3C(=O)O)cc2)CC1
IC50 (Hexokinase): 8 µM (active) and 4.24 µM (active)

CN(C)c1cccc(NC(=O)Cn2sc3ccccc3c2=O)c1
IC50 (Hexokinase): 8.21 µM (active)

O=C(NNC(=S)NC(=O)c1sc2ccccc2c1Cl)c1ccc(Cl)cc1
IC50 (Vero [12]): 10 µM (active) | CC50 (Vero [11]): > 25 µM (active)

COc1cc(/C=N/NC(=O)c2cc(-c3cccc(OC(C)C)c3)nc3ccccc23)ccc1O
CC50 [13]: 15.5 µM (active) | IC50 (Vero [12]): > 25 µM (active) | CC50 (Vero [11]): > 25 µM (active)

CCc1sc2nc(SCC(=O)Nc3cc(C)on3)n(-c3cccc(OC)c3)c(=O)c2c1C
CC50 [14]: 36.3 µM (active)

CN(C)S(=O)(=O)c1ccc(C(=O)/C=C/c2cccnc2)cc1
EC50 (BJ [6]): 10.4 µM (active) | CC50 [14]: 17.5 µM (active) | EC50 (BJ [7]): > 150 µM (not active) | EC50 (BJ [8]): > 150 µM (inconclusive) | EC50 [9]: 10.4 µM (active)

CCC1Oc2nc(SC)nnc2-c2ccccc2N1C(=O)c1ccccc1 (stereo unspecified)
AC50 (Escherichia coli): 24.1 µM (active)

O=C(N/N=C/c1ccc2c(c1)OCO2)c1sc2cc(Cl)ccc2c1Cl
CC50 [14]: > 40 µM (active) | IC50 [15]: > 64 µM (inactive)

COc1ccccc1NC(=O)Cn1sc2ccccc2c1=O
IC50 (Hexokinase): 6.28 µM (active)

COc1ccc(C(=O)/C=C/c2cc(OC)c(O)c(OC)c2)c(F)c1
CC50 [13]: 14.3 µM (active) | CC50 [16]: 25.7 µM (active) | AC50 [17]: 7.21 µM (active) | IC50 (Vero [12]): > 25 µM (active) | CC50 (Vero [11]): 18.7 µM (active)

Cc1cccc(CCNC(=O)Cn2ncc3c4cc(C)ccc4nc-3c2O)c1
EC50 (cells [18]): > 350 µM (not active) | EC50 (cells [19]): > 350 µM (not active)

N#CC(C#N)=C1C=CC=CN1/C(=C\c1ccccc1Cl)C(=O)c1ccccc1
IC50 [20]: > 80 µM (inactive) | IC50 (Vero [12]): > 25 µM (active) | CC50 (Vero [11]): 24.5 µM (active)

O=c1c(/N=N/c2ccc(O)cc2)c(-c2ccccc2)[nH]n1-c1ccc([N+](=O)[O-])cc1
CC50 [14]: 17.7 µM (active)

COC(CN(C)C(=O)C1CCCN(S(=O)(=O)c2ccc3c(c2)oc(=O)n3C)C1)OC (stereo unspecified)
AC50 (Escherichia coli): 27.3 µM (active)

Cc1cccc(NCc2ccc([N+](=O)[O-])s2)c1
CC50 [21]: > 40 µM (active)

O=C(NCc1cccc(Cl)c1)c1cnn2c1NC(c1ccco1)CC2C(F)(F)F (stereo unspecified)
AC50 (Escherichia coli): 24.2 µM (active)

O=c1c2ccccc2[s+]([O-])n1-c1ccc(Cl)cc1 (stereo unspecified)
IC50 (Hexokinase): > 25 µM (inactive)

Cc1cccc(NC(=O)[C@H](Cc2c[nH]c3ccccc23)NC(=O)[C@@H]2Cc3ccccc3CN2)c1
EC50 (BJ [6]): 28.3 µM (active) | EC50 (BJ [7]): 26.9 µM (active) | EC50 (BJ [8]): > 150 µM (not active) | EC50 [9]: 71.3 µM (active) | IC50 (Vero [12]): 4.39 µM (active) | CC50 (Vero [11]): 19.4 µM (active)

CC(C)Cn1c2c(c(O)c(C(=O)Nc3ccc(F)cc3)c1=O)CCCC2
CC50 [14]: > 40 µM (active)

O=C(/C=C/c1ccccn1)c1cc(Br)ccc1O
CC50 [14]: > 40 µM (active) | AC50 [22]: 2.03 µM (active)

COCc1cc(C)n(CC(=O)NC(C)c2ccccc2)c(=O)c1C#N (stereo unspecified)
AC50 (Escherichia coli): 27.1 µM (active)

CCCn1c(SCC(=O)Nc2ccccc2CC)nnc1C(C)C
EC50 (cells [18]): > 350 µM (not active) | EC50 (cells [19]): > 350 µM (not active)

CCOC(=O)c1c(-c2ccccc2)oc2cc(CN(C)C)c(O)c(CN(C)C)c12
EC50 (cells [18]): 28 µM (active) | EC50 (cells [19]): > 350 µM (not active) | AC50 [23]: 7.81 µM (active) | AC50 [24]: 21.2 µM (active) | AC50 [25]: 5.5 µM (active)
